Patent US20230002359A1, “PESTICIDALLY ACTIVE FUSED BICYCLIC HETEROAROMATIC COMPOUNDS” (priority 2019, published 2023)
Read-outs that look alike come from different tables or passages of the source.

Experiments:
Type in all cases: in vivo
[1] = system: Diabrotica Balteata (Corn Root Worm); experiment: Example B1: Diabrotica balteata (corn root worm), maize sprouts sprayed, L2 larvae; details: 96 h, read-out: control in at least one of the two categories (mortality or growth inhibition)
How it was run: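 Maize sprouts on agar were sprayed with aqueous test solutions made from 10′000 ppm DMSO stocks, dried, then infested with 6 to 10 L2 larvae per well. Mortality and growth inhibition were scored against untreated samples 4 days after infestation.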

[2] = system: Euschistus heros (Neotropical Brown Stink Bug); experiment: Example B2: Euschistus heros (neotropical brown stink bug), soybean leaves sprayed, N2 nymphs; details: 120 h, read-out: control in at least one of the two categories (mortality or growth inhibition)
Experimental: Soybean leaves on agar in 24-well microtiter plates were sprayed with aqueous test solutions prepared from 10′000 ppm DMSO stock solutions. After drying the leaves were infested with N2 nymphs. The samples were assessed for mortality and growth inhibition in comparison to untreated samples 5 days after infestation.

[3] = system: Chilo suppressalis (Striped Rice Stemborer); experiment: Example B3: Chilo suppressalis (striped rice stemborer), artificial diet, L2 larvae; details: 144 h, read-out: control in at least one of the three categories (mortality, anti-feedant effect, or growth inhibition)
How it was run: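 Artificial diet in wells was treated with aqueous test solutions diluted from 10'000 ppm DMSO stocks, dried, then infested with 6-8 L2 larvae per well. Mortality, anti-feeding effect and growth inhibition were scored against untreated samples 6 days after infestation; control means any category exceeds the untreated sample.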

[4] = system: Plutella xylostella (Diamond Back Moth); experiment: Example B4: Plutella xylostella (diamond back moth), artificial diet, eggs, 24-well; details: 192 h, read-out: control in at least one of the two categories (mortality or growth inhibition)
Experimental: 24-well microtiter plates with artificial diet were treated with aqueous test solutions prepared from 10′000 ppm DMSO stock solutions by pipetting. After drying, Plutella eggs were pipetted through a plastic stencil onto a gel blotting paper and the plate was closed with it. The samples were assessed for mortality and growth inhibition in comparison to untreated samples 8 days after infestation.

[5] = system: Myzus persicae (Green Peach Aphid); experiment: Example B6: Myzus persicae (green peach aphid) intrinsic activity, sucrose solution; details: 120 h
How it was run: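 Compounds from 10′000 ppm DMSO stocks were mixed into sucrose solution in 24-well plates sealed with Parafilm. Aphid-infested pea seedlings were set on the membrane and the plate inverted so aphids fed through it. Mortality scored 5 days after infestation.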

[6] = system: Spodoptera littoralis (Egyptian Cotton Leaf Worm); experiment: Example B7: Spodoptera littoralis (Egyptian cotton leaf worm), cotton leaf discs sprayed, L1 larvae; details: foliar, 72 h, read-out: control in at least one of the three categories (mortality, anti-feedant effect, or growth inhibition)
How it was run: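 Leaf discs on agar; spray, aqueous dilution of 10′000 ppm DMSO stock; dry; 5 L1 larvae/disc. Read at 3 d post-infestation: mortality, antifeedant, growth inhibition vs untreated. Control = ≥1 category above untreated.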

[7] = application rate of 200 ppm, 4 days after infestation, L2 larvae
[8] = application rate of 200 ppm, 5 days after infestation, N2 nymphs
[9] = application rate of 200 ppm, 6 days after infestation, L2 larvae
[10] = application rate of 200 ppm, 8 days after infestation, eggs
[11] = test rate of 12 ppm, 5 days after infestation, intrinsic activity, read-out: mortality
[12] = application rate of 200 ppm, 3 days after infestation, L1 larvae

C=CCN(c1ncnc2c(C(F)(F)F)cc(C(F)(F)F)cc12)C(C)c1ncnn1-c1ccc(C#N)cn1 (stereo not drawn) [P.260, 6-[5-[1-[allyl-[6,8-bis(trifluoromethyl)quina-zolin-4-yl]amino]ethyl]-1,2,4-triazol-1-yl]pyridine-3-carbonitrile]
≥ 80%: percent control (mortality or growth inhibition) at 200 ppm [1, 7] | percent control (mortality or growth inhibition) at 200 ppm [2, 8] | percent control (mortality, anti-feedant effect or growth inhibition) at 200 ppm [3, 9] | percent control (mortality or growth inhibition) at 200 ppm [4, 10] | mortality at 12 ppm [5, 11] | percent control (mortality, anti-feedant effect or growth inhibition) at 200 ppm [6, 12]

CC(Nc1ncnc2c(C(F)(F)F)cc(Cl)cc12)c1ncnn1-c1ncccn1 (stereo not drawn) [P.40, 6-chloro-N-[1-(2-pyrimidin-2-yl-1,2,4-triazol-3-yl)ethyl]-8-(trifluoromethyl)quinazolin-4-amine]
≥ 80%: percent control (mortality or growth inhibition) at 200 ppm [1, 7] | percent control (mortality or growth inhibition) at 200 ppm [2, 8] | percent control (mortality, anti-feedant effect or growth inhibition) at 200 ppm [3, 9] | percent control (mortality or growth inhibition) at 200 ppm [4, 10] | mortality at 12 ppm [5, 11] | percent control (mortality, anti-feedant effect or growth inhibition) at 200 ppm [6, 12]

CC(c1ncnn1-c1ccc(C#N)cn1)N(C(=O)OCc1ccccc1)c1ncnc2c(C(F)(F)F)cc(C(F)(F)F)cc12 (stereo not drawn) [P.10, benzyl N-[6,8-bis(trifluoromethyl)quina-zolin-4-yl]-N-[1-[2-(5-cyano-2-pyridyl)-1,2,4-triazol-3-yl]ethyl]carbamate]
≥ 80%: percent control (mortality or growth inhibition) at 200 ppm [1] | percent control (mortality or growth inhibition) at 200 ppm [2] | percent control (mortality, anti-feedant effect or growth inhibition) at 200 ppm [3] | percent control (mortality or growth inhibition) at 200 ppm [4] | mortality at 12 ppm [5] | percent control (mortality, anti-feedant effect or growth inhibition) at 200 ppm [6]

C[C@@H](c1ncnn1-c1ncccn1)N(CC1CC1)c1ncnc2c(Cl)cc(C(F)(F)F)cc12 [P.272, 8-chloro-N-(cyclopropylmethyl)-N-[(1S)-1-(2-pyrimidin-2-yl-1,2,4-triazol-3-yl)ethyl]-6-(trifluoromethyl)quinazolin-4-amine]
≥ 80%: percent control (mortality or growth inhibition) at 200 ppm [1, 7] | percent control (mortality or growth inhibition) at 200 ppm [2, 8] | percent control (mortality, anti-feedant effect or growth inhibition) at 200 ppm [3, 9] | percent control (mortality or growth inhibition) at 200 ppm [4, 10] | mortality at 12 ppm [5, 11] | percent control (mortality, anti-feedant effect or growth inhibition) at 200 ppm [6, 12]

COCN(c1ncnc2c(C(F)(F)F)cc(C(F)(F)F)cc12)[C@@H](C)c1ncnn1-c1ccc(C#N)cn1 [P.169, 6-[5-[(1S)-1-[[6,8-bis(trifluoromethyl)quina-zolin-4-yl]-(methoxymethyl)amino]ethyl]-1,2,4-triazol-1-yl]pyridine-3-carbonitrile]
≥ 80%: percent control (mortality or growth inhibition) at 200 ppm [1, 7] | percent control (mortality or growth inhibition) at 200 ppm [2, 8] | percent control (mortality, anti-feedant effect or growth inhibition) at 200 ppm [3, 9] | percent control (mortality or growth inhibition) at 200 ppm [4, 10] | mortality at 12 ppm [5, 11] | percent control (mortality, anti-feedant effect or growth inhibition) at 200 ppm [6, 12]

CC(Nc1ncnc2c(C(F)(F)F)cc(OC(F)(F)F)cc12)c1ncnn1-c1ccc(C#N)cn1 (stereo not drawn) [P.220, 6-[5-[1-[[6-(trifluoromethoxy)-8-(trifluoromethyl)quinazolin-4-yl]amino]ethyl]-1,2,4-triazol-1-yl]pyridine-3-carbonitrile]
≥ 80%: percent control (mortality or growth inhibition) at 200 ppm [1, 7] | percent control (mortality or growth inhibition) at 200 ppm [2, 8] | percent control (mortality, anti-feedant effect or growth inhibition) at 200 ppm [3, 9] | percent control (mortality or growth inhibition) at 200 ppm [4, 10] | mortality at 12 ppm [5, 11] | percent control (mortality, anti-feedant effect or growth inhibition) at 200 ppm [6, 12]

C[C@@H](c1ncnn1-c1ncccn1)N(C)c1ncnc2c(C(F)(F)F)cc(S(=O)(=O)C(F)(F)F)cc12 [P.262, N-methyl-N-[(1S)-1-(2-pyrimidin-2-yl-1,2,4-triazol-3-yl)ethyl]-8-(trifluoromethyl)-6-(trifluoromethylsulfonyl) quinazolin-4-amine]
≥ 80%: percent control (mortality or growth inhibition) at 200 ppm [1, 7] | percent control (mortality or growth inhibition) at 200 ppm [2, 8] | percent control (mortality, anti-feedant effect or growth inhibition) at 200 ppm [3, 9] | percent control (mortality or growth inhibition) at 200 ppm [4, 10] | mortality at 12 ppm [5, 11] | percent control (mortality, anti-feedant effect or growth inhibition) at 200 ppm [6, 12]
